≈ marks a conversion by molar mass, not a printed value. Calls of active or inactive are those of the source. The rule behind the calls is not given here.
How the values were obtained:
[1] = Oral bioavailability in mouse at 10 mg/kg; assay type: ADME, organism-based; conditions: in vivo
[2] = Metabolic stability in mouse liver microsomes after 30 mins; assay type: ADME, microsome; conditions: read-out: Stability
[3] = molecular target: Type 1 fimbrin D-mannose specific adhesin (Escherichia coli K-12) (UniProt P08191); assay: Inhibition of Escherichia coli UTI89 FimH assessed as reduction in […] guinea pig erythrocyte hemagglutination titer
Type 1 fimbrin D-mannose specific adhesin (Escherichia coli K-12), sequence (P08191 whole entry): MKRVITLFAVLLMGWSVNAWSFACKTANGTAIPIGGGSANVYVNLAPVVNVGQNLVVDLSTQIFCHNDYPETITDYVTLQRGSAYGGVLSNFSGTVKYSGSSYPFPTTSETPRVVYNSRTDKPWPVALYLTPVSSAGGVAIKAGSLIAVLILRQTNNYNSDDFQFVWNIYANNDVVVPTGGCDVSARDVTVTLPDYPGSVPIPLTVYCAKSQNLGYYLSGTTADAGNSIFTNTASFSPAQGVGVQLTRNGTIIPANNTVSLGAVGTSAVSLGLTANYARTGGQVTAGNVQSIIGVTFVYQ

[4] = Solubility of the compound in pH 6.8 JP2 buffer; assay type: physicochemical
[5] = Lipophilicity, log D of the compound at pH 7.4; assay type: physicochemical; conditions: buffer
[6] = Drug excretion in mouse urine at 10 mg/kg, po or 2 mg/kg, iv; assay type: ADME, organism-based; conditions: read-out: Drug excretion
[7] = Permeability of the compound by PAMPA; assay type: ADME; conditions: read-out: permeability
Mus musculus = assay: Time at which simulated urine concentration stays above its HAI titer in mouse at 1 to 100 mg/kg, po; assay type: ADME, organism-based; conditions: in vivo
Escherichia coli [8] = assay: Antibiofilm activity against Escherichia coli UTI89 preformed biofilms; assay type: functional, organism-based
hERG (KCNH2) = hERG (KCNH2) (Homo sapiens, UniProt Q12809); assay: Inhibition of human ERG at 100 uM relative to control
hERG (KCNH2), sequence (Q12809 whole entry): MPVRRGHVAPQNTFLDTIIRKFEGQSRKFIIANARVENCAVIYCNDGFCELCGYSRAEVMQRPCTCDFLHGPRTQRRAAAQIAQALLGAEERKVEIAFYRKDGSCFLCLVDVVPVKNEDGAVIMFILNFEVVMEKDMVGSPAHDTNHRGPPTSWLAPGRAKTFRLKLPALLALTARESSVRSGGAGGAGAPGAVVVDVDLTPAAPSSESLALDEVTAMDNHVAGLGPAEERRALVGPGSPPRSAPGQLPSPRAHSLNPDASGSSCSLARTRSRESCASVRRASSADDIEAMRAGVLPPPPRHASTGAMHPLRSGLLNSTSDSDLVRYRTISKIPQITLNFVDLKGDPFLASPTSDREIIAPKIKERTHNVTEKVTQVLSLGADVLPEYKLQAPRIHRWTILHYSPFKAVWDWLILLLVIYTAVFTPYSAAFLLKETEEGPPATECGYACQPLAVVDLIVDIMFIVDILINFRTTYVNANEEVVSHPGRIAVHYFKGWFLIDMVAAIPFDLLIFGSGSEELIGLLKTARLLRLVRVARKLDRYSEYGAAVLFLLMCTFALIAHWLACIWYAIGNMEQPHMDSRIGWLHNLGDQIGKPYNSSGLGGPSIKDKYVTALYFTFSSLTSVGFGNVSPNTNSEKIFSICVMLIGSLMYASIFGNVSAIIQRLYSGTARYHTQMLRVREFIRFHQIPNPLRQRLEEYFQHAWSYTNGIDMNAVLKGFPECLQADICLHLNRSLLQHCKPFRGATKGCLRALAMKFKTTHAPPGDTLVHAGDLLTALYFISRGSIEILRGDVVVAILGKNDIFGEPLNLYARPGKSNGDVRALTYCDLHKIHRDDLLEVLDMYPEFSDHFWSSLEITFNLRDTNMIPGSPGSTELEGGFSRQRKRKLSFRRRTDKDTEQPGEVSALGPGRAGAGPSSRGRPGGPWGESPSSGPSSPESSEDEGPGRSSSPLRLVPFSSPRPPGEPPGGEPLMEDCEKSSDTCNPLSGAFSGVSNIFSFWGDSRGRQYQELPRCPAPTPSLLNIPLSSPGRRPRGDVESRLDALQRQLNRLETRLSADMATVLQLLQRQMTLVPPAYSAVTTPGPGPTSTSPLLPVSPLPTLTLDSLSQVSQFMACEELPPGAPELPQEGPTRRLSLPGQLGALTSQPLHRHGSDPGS

Escherichia coli [9] = assay: Antibacterial activity against Escherichia coli UTI89 in mouse prophylactic UTI model assessed as reduction in bacterial count in urinary bladder at 1 to 100 mg/kg, po administered 30 mins prior to infection measured at 2 and 24 hrs post infection; assay type: functional, organism-based
[10] = Mechanism based inactivation of CYP450 (unknown origin); assay type: ADME; conditions: human
Escherichia coli [11] = assay: Antibiofilm activity against Escherichia coli UTI89; assay type: functional, organism-based

| Structure (SMILES) | bioavailability [1] [%] | remaining at 0.5 h [2] [%] | EC90 [3] [nM] | solubility [4] [µg/mL] | logD [5] | dose excreted [6] [%] | Papp [7] [×10⁻⁶ cm/s] | Time (Mus musculus) | IC50 (Escherichia coli [8]) [µg/mL] | Activity [10] | IC50 (Escherichia coli [11]) [µg/mL] | inhibition at 100 µM (hERG (KCNH2)) [%] | Activity (Escherichia coli [9]) |
| --- | --- | --- | --- | --- | --- | --- | --- | --- | --- | --- | --- | --- | --- |
| CCCCn1ccc(-c2ccc(S[C@H]3O[C@H](CO)[C@@H](O)[C@H](O)[C@@H]3O)c(C)c2)cc1=O | 1 | 60 | 600 | 582 (≈ 1340 µM) | 1.8 | – | ≤ 12 | – | – | – | – | – | – |
| Cc1cc(-c2ccc(=O)n(CC(C)(C)O)c2)ccc1S[C@H]1O[C@H](CO)[C@@H](O)[C@H](O)[C@@H]1O | 0 | 97 | 1250 | 729 (≈ 1610 µM) | 0.5 | 5.3 | ≤ 12 | – | – | – | – | – | – |
| Cc1cc(-c2ccc(N3CCC3)nc2)ccc1S[C@H]1O[C@H](CO)[C@@H](O)[C@H](O)[C@@H]1O | 14 | 91 | 1250 | 217 (≈ 518 µM) | 2.1 | 7 | – | – | – | – | – | – | – |
| Cc1cc(-c2ccc(=O)n(CC(C)C)c2)ccc1S[C@H]1O[C@H](CO)[C@@H](O)[C@H](O)[C@@H]1O | 1 | 95 | 2500 | 863 (≈ 1980 µM) | 1.5 | 8.1 | ≤ 12 | – | – | – | – | – | – |
| CCCCn1cc(-c2ccc(S[C@H]3O[C@H](CO)[C@@H](O)[C@H](O)[C@@H]3O)c(C)c2)ccc1=O | 3 | 95 | 600 | 740 (≈ 1700 µM) | 1.7 | 7 | ≤ 12 | – | – | – | – | – | – |
| CCn1cc(-c2ccc(S[C@H]3O[C@H](CO)[C@@H](O)[C@H](O)[C@@H]3O)c(C)c2)ccc1=O | – | 100 | 2500 | 668 (≈ 1640 µM) | 0.7 | – | ≤ 12 | – | – | – | – | – | – |

More lines, main results first:

| bioavailability [1] [%] | remaining at 0.5 h [2] [%] | EC90 [3] [nM] | solubility [4] [µg/mL] | logD [5] | dose excreted [6] [%] | Papp [7] [×10⁻⁶ cm/s] | Time (Mus musculus) | IC50 (Escherichia coli [8]) [µg/mL] | Activity [10] | IC50 (Escherichia coli [11]) [µg/mL] | Structure (SMILES) | inhibition at 100 µM (hERG (KCNH2)) [%] | Activity (Escherichia coli [9]) |
| --- | --- | --- | --- | --- | --- | --- | --- | --- | --- | --- | --- | --- | --- |
| 23 | 61 | 600 | 150 (≈ 366 µM) | 2.3 | 11.7 | ≤ 12 | – | – | – | – | CSc1ccc(-c2ccc(S[C@H]3O[C@H](CO)[C@@H](O)[C@H](O)[C@@H]3O)c(C)c2)cn1 | – | – |
| 15 | 93 | 1250 | 142 (≈ 312 µM) | 1.2 | 24 | ≤ 12 | – | – | – | – | Cc1cc(-c2ccc(=O)n(-c3ccccc3)c2)ccc1S[C@H]1O[C@H](CO)[C@@H](O)[C@H](O)[C@@H]1O | – | – |
| – | 72 | 1250 | 719 (≈ 1830 µM) | 0.3 | – | ≤ 12 | – | – | – | – | Cc1cc(-c2ccc(=O)n(C)c2)ccc1S[C@H]1O[C@H](CO)[C@@H](O)[C@H](O)[C@@H]1O | – | – |
| 86 | 100 | 310 | 663 (≈ 1690 µM) | 2.1 | 2.8 | 12 to 30 | <= 24 hr | 0.56 (≈ 1.42 µM) | Not Active | 0.3 (≈ 0.762 µM) | COc1ccc(-c2ccc(S[C@H]3O[C@H](CO)[C@@H](O)[C@H](O)[C@@H]3O)c(C)c2)cn1 | 10.8 | Active |
